From publication PMC4002258 (Biochimica et biophysica acta, 2013) come the findings set out here.

Read-outs that look alike come from different tables or passages of the source. Marks after values point to notes of the source that are not given here. A value given as a limit tells only on which side of the number the result lay.

For test [1], the target named is T1, human recombinant core 2 β1,6-GlcNAc-transferase (C2GnT1) (Homo sapiens, UniProt Q02742).
T1 sequence (Q02742 33-428 limits assumed): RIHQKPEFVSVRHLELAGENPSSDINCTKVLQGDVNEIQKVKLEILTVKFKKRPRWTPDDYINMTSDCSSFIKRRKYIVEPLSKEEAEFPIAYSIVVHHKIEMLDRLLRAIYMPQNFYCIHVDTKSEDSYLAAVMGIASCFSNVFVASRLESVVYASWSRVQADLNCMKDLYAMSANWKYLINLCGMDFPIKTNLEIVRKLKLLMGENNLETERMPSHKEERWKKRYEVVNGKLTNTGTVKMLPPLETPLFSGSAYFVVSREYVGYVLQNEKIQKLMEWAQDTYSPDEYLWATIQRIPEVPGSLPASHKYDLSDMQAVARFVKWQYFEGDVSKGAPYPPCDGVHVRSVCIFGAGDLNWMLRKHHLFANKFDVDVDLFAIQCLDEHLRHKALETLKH
Nature of the test: C2GnT1 glycosyltransferase assay. The format is biochemical. The following applies: for C2GnT1 activity (%): acceptor substrate 0.5 mM, 0.5 mM Galβ1–3GalNAcα-pnp set to 100%.

The target of test [2] is T2, human recombinant core 2/4 β1,6-GlcNAc-transferase (C2GnT2) (Homo sapiens, UniProt O95395).
T2 sequence (O95395 27-438): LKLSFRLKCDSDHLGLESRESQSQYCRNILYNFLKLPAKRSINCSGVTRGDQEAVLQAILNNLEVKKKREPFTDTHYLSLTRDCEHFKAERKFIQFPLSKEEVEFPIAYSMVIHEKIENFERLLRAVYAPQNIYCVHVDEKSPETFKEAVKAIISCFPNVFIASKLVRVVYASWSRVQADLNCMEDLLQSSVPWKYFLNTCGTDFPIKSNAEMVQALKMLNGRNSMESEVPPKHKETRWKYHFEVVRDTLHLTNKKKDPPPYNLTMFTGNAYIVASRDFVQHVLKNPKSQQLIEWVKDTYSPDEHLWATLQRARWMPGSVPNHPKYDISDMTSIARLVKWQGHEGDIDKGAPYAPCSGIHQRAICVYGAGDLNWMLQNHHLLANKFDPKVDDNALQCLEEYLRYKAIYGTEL
The format is biochemical. To be noted: for C2GnT2 activity (%): acceptor substrate 0.5 mM, 0.5 mM Galβ1–3GalNAcα-pnp set to 100%.

As for `CC(=O)N[C@H]1[C@@H](OCc2ccccc2)O[C@H](CO)[C@H](O)[C@@H]1O[C@@H]1O[C@H](CO)[C@H](O)C[C@H]1O` [3-Deoxy-Galβ1–3GalNAcα-Bn], the “C2GnT1 activity (%)” value in test [1] was 90%. Besides, in test [2], the “C2GnT2 activity (%)” value is on record as 52%.
The matching figures for `CO[C@H]1[C@@H](O)[C@@H](CO)O[C@@H](O[C@H]2[C@@H](O)[C@@H](CO)O[C@H](OCc3ccccc3)[C@@H]2NC(C)=O)[C@@H]1O` [3-O-Methyl-Galβ1–3GalNAcα-Bn]: 104% and 41%.
The matching figures for `CC(=O)N[C@H]1[C@@H](OCc2ccccc2)O[C@H](CO)[C@H](O)[C@@H]1O[C@@H]1O[C@H](CO)C[C@H](O)[C@H]1O` [4-Deoxy-Galβ1–3GalNAcα-Bn]: less than 1% and less than 1%.
Take `CC(=O)N[C@H]1[C@@H](OCc2ccccc2)O[C@H](CO)[C@H](O)[C@@H]1O[C@@H]1O[C@H](CO)[C@H](F)[C@H](O)[C@H]1O` [4-F-4-Deoxy-Galβ1–3GalNAcα-Bn]: the “C2GnT1 activity (%)” value in test [1] is given as less than 1%. Besides, the “C2GnT2 activity (%)” value in test [2] was less than 1%.
As for `CC(=O)N[C@H]1[C@@H](OCc2ccccc2)O[C@H](CO)[C@H](O)[C@@H]1O[C@@H]1O[C@H](C)[C@H](O)[C@H](O)[C@H]1O` [6-Deoxy-Galβ1–3GalNAcαBn], the “C2GnT1 activity (%)” value in test [1] is recorded as less than 1%. The “C2GnT2 activity (%)” value in test [2] is less than 1%.
For `CO[C@H]1O[C@H](CO)[C@H](O)[C@H](O[C@@H]2O[C@H](CO)[C@H](O)[C@H](O)[C@H]2O[C@@H]2O[C@@H](C)[C@@H](O)[C@@H](O)[C@@H]2O)[C@H]1NC(C)=O` [Fucα1–2Galβ1–3GalNAcα-methyl], the “C2GnT1 activity (%)” value in test [1] is less than 1%. The “C2GnT2 activity (%)” value in test [2] is on record as less than 1%.
As to `CC(=O)N[C@H]1[C@@H](OCc2ccccc2)O[C@H](CO)C[C@@H]1O[C@@H]1O[C@H](CO)[C@H](O)[C@H](O)[C@H]1O` [Galβ1–3(4-deoxy)GalNAcα-Bn], in test [1], the “C2GnT1 activity (%)” value is less than 1%. Further, in test [2], the “C2GnT2 activity (%)” value was less than 1%.
For the molecule `COC[C@H]1O[C@H](OCc2ccccc2)[C@H](NC(C)=O)[C@@H](O[C@@H]2O[C@H](CO)[C@H](O)[C@H](O)[C@H]2O)[C@H]1O` [Galβ1–3(6-O-methyl)GalNAcα-Bn], the “C2GnT1 activity (%)” value in test [1] was less than 1%. In addition, the “C2GnT2 activity (%)” value in test [2] is listed as less than 1%.
With `CC(=O)N[C@H]1[C@@H](OCc2ccccc2)O[C@H](CO)[C@H](O)[C@@H]1O[C@@H]1O[C@H](CO)[C@H](O)[C@H](O)[C@H]1O` [Galβ1–3GalNAcα-Bn], in test [1], the “C2GnT1 activity (%)” value is recorded as 64%. Further, the “C2GnT2 activity (%)” value in test [2] is on record as 35%.
In the same order, the values of `CC(=O)N[C@H]1[C@@H](Oc2ccccc2[N+](=O)[O-])O[C@H](CO)[C@H](O)[C@@H]1O[C@@H]1O[C@H](CO)[C@H](O)[C@H](O)[C@H]1O` [Galβ1–3GalNAcα-onp] are 79% and 100%.
In the same order, the values of `C=C(C)C1CC=C(CO[C@H]2O[C@H](CO)[C@H](O)[C@H](O[C@@H]3O[C@H](CO)[C@H](O)[C@H](O)[C@H]3O)[C@H]2NC(C)=O)CC1` (stereo partly drawn) [Galβ1–3GalNAcα-perillyl] are 135% and 86%.
With `CC(=O)N[C@H]1[C@@H](Oc2ccc([N+](=O)[O-])cc2)O[C@H](CO)[C@H](O)[C@@H]1O[C@@H]1O[C@H](CO)[C@H](O)[C@H](O)[C@H]1O` [Galβ1–3GalNAcα-pnp, reference compound], the “C2GnT1 activity (%)” value in test [1] is given as 100 ^a %. Moreover, the Vmax in test [2] (C2GnT2, acceptor substrate) came out at 1.5 µmol/h/mg. The “C2GnT2 activity (%)” value in test [2] is 100 ^b %.
On to `CC(=O)N[C@H]1[C@@H](OCc2ccccc2)O[C@H](CO)[C@@H](O)[C@@H]1O[C@@H]1O[C@H](CO)[C@H](O)[C@H](O)[C@H]1O` [Galβ1–3GlcNAcα-Bn], for which the “C2GnT1 activity (%)” value in test [1] was less than 1%.
On to `CC(=O)N[C@H]1[C@@H](OCc2ccccc2)O[C@H](CO)[C@H](O)[C@@H]1O[C@@H]1O[C@H](CO)[C@H](O)[C@H](O[C@@H]2O[C@H](CO)[C@@H](O)[C@H](O[C@@H]3O[C@H](CO)[C@H](O)[C@H](O)[C@H]3O)[C@H]2NC(C)=O)[C@H]1O` [Galβ1–3GlcNAcβ1–3Galβ1–3GalNAcα-Bn], for which the “C2GnT1 activity (%)” value in test [1] was less than 1%. Further, in test [2], the “C2GnT2 activity (%)” value is on record as less than 1%.
As for `CO[C@@H]1O[C@H](CO)[C@H](O)[C@H](O[C@@H]2O[C@H](CO)[C@@H](O)[C@H](O)[C@H]2NC(C)=O)[C@H]1O` [GlcNAcβ1–3-Galβ-methyl], the “C2GnT1 activity (%)” value in test [1] is less than 1%. In addition, the “C2GnT2 activity (%)” value in test [2] is less than 1%.
Take `C=CCO[C@H]1O[C@H](CO)[C@H](O)[C@H](O[C@@H]2O[C@H](CO)[C@@H](O)[C@H](O)[C@H]2NC(C)=O)[C@H]1NC(C)=O` [GlcNAcβ1–3GalNAcα-allyl]: in test [1], the “C2GnT1 activity (%)” value is given as less than 1%. The “C2GnT2 activity (%)” value in test [2] is 27%.
As to `CC(=O)N[C@H]1[C@H](O[C@H]2[C@@H](O)[C@@H](CO)O[C@H](Oc3ccc([N+](=O)[O-])cc3)[C@@H]2NC(C)=O)O[C@H](CO)[C@@H](O)[C@@H]1O` [GlcNAcβ1–3GalNAcα-pnp, reference compound], the “C2GnT1 activity (%)” value in test [1] is listed as less than 1%. The Vmax in test [2] (C2GnT2, acceptor substrate) is 1.0 µmol/h/mg. Moreover, the “C2GnT2 activity (%)” value in test [2] is listed as 32%.
For `CC(=O)N[C@H]1[C@H](OC[C@H]2O[C@H](OCc3ccccc3)[C@H](NC(C)=O)[C@@H](O[C@@H]3O[C@H](CO)[C@@H](O)[C@H](O)[C@H]3NC(C)=O)[C@H]2O)O[C@H](CO)[C@@H](O)[C@@H]1O` [GlcNAcβ1–6(GlcNAcβ1–3)GalNAcα-Bn], in test [1], the “C2GnT1 activity (%)” value was less than 1%. Besides, the “C2GnT2 activity (%)” value in test [2] was less than 1%.
As for `CC(=O)N[C@H]1[C@@H](OP(=O)(O)OP(=O)(O)OC[C@H]2O[C@@H](n3ccc(=O)[nH]c3=O)[C@H](O)[C@@H]2O)O[C@H](CO)[C@@H](O)[C@@H]1O` [UDP-GlcNAc, reference compound], the Vmax in test [1] (C2GnT1, donor substrate, using 5 mM Galβ1–3GalNAcα-pnp) turned out to be 0.1 µmol/h/mg; in test [2] (C2GnT2, donor substrate, using 5 mM Galβ1–3GalNAcα-pnp), 1.7 µmol/h/mg; in test [2] (C2GnT2, donor substrate, using 5 mM GlcNAcβ1–3GalNAcα-pnp), 0.8 µmol/h/mg.
With (Galβ1–3GalNAcα)TAGV, in test [1], the “C2GnT1 activity (%)” value is given as 92%. For the same molecule, the “C2GnT2 activity (%)” value in test [2] was less than 1%.
The matching figures for “AHGVT-(Galβ1–3GalNAcα)SAPDTRPAPGS- (Galβ1–3GalNAcα)SAPPA”: 9% and less than 1%.
The matching figures for “AHGVT-(Galβ1–3GalNAcα)SAPDTRPAPGSTAP- (Galβ1–3GalNAcα)TA”: 18% and less than 1%.
As to AHGVT-(Galβ1–3GalNAcα)SAPDTRPAPGSTAPNA, the “C2GnT1 activity (%)” value in test [1] turned out to be 9%. In addition, the “C2GnT2 activity (%)” value in test [2] is less than 1%.
In the same order, the values of AHGVT-(Galβ1–3GalNAcα)SAPDTRPAPGSTAPTA are 9% and less than 1%.
Consider AHGVT-(Galβ1–3GalNAcα)SAPESRPAPGSTAPNA, for which, in test [1], the “C2GnT1 activity (%)” value was 9%. Also, in test [2], the “C2GnT2 activity (%)” value was less than 1%.
For the molecule AHGVT-(Galβ1–3GalNAcα)SAPETRPAPGSTAPTA, in test [1], the “C2GnT1 activity (%)” value is on record as 11%. In addition, the “C2GnT2 activity (%)” value in test [2] is less than 1%.
The matching figures for Ac-G-(Galβ1–3GalNAcα)TTTPIST-NH2: 12% and 8%.
The matching figures for Ac-GT-(Galβ1–3GalNAcα)TTPIST-NH2: 13% and 5%.
In the same order, the values of Ac-GTT-(Galβ1–3GalNAcα)TPIST-NH2 are 14% and less than 1%.
As to Ac-P-(Galβ1–3GalNAcα)TTTGIST-NH2, the “C2GnT1 activity (%)” value in test [1] is reported as 7%. Moreover, the “C2GnT2 activity (%)” value in test [2] is less than 1%.
The matching figures for Ac-P-(Galβ1–3GalNAcβ)TTTPIST-NH2: 72% and 32%.
For the molecule Ac-PT-(Galβ1–3GalNAcα)TTGIST-NH2, the “C2GnT1 activity (%)” value in test [1] is 49%. In test [2], the “C2GnT2 activity (%)” value stood at 6%.
Regarding Ac-PT-(Galβ1–3GalNAcβ)TTPIST-NH2, in test [1], the “C2GnT1 activity (%)” value amounted to 43%. Besides, the “C2GnT2 activity (%)” value in test [2] stood at 15%.
Turning to Ac-PTT-(Galβ1–3GalNAcα)TGIST-NH2, the “C2GnT1 activity (%)” value in test [1] was found to be 36%. For the same molecule, the “C2GnT2 activity (%)” value in test [2] was less than 1%.
Take T-(Galβ1–3GalNAcα)TTVTPTPTG: the “C2GnT1 activity (%)” value in test [1] is on record as 11%. Besides, the “C2GnT2 activity (%)” value in test [2] is less than 1%.
In the case of T-(GlcNAcβ1–3GalNAcα)TTVTPTPTG, the “C2GnT1 activity (%)” value in test [1] is given as less than 1%. Further, in test [2], the “C2GnT2 activity (%)” value is given as less than 1%.
With TE-(GlcNAcβ1–3GalNAcα)TTSHSTPG, the “C2GnT1 activity (%)” value in test [1] is given as less than 1%. Besides, the “C2GnT2 activity (%)” value in test [2] is recorded as less than 1%.
For TET-(Galβ1–3GalNAcα)TSHSTPG, the “C2GnT1 activity (%)” value in test [1] came to 27%. Moreover, in test [2], the “C2GnT2 activity (%)” value is less than 1%.

Usually Vmax stands for the top rate of the reaction or transport when substrate is in excess.
